pIC50: −log10 of the molar value.
Target: TNFα (Homo sapiens (Human), UniProt P01375)
Assay: TNF induced HEK-Blue assay
Assay type: cell-based
Conditions: TNFα 0.5 ng/ml; HEK-Blue-CD40L cells, NF-κB-driven secreted alkaline phosphatase reporter; 18 h
Protocol: Test compounds serially diluted in DMSO were plated in an assay plate (Labcyte, Cat. #LP-0200) at final concentrations ranging from 0.004 μM to 25 μM. TNFα (final concentration 0.5 ng/ml) or CD40L (final concentration 30 ng/ml) in assay buffer [DMEM, 4.5 g/l glucose (Gibco, Cat. 21063-029), 10% FBS (Sigma, F4135), 1% Penicillin-Streptomycin (Gibco, Cat. 15140-122), 1% Anti-Anti (Gibco, Cat. 15240-112) and 2 mM L-glutamine (Gibco, Cat. 25030-081)] was then added to the assay plate. After a 30 minute pre-incubation at 37° C. and 5% CO2, HEK-Blue-CD40L cells (InvivoGen, Cat. Code hkb-cd40) containing a NF-κB-driven secreted alkaline phosphatase reporter gene were seeded into the assay plate at a density of 20,000 cells per well. This plate was then incubated for 18 h at 37° C. and 5% CO2. Secreted alkaline phosphatase expression was measured using QUANTI-Blue (InvivoGen, Cat. Code rep-qb1) according to manufacturer's specifications and the assay plate was read on a PerkinElmer Envision at 620 nm.
Inhibition data for the test compound over a range of concentrations was plotted as percentage inhibition of the test compound (100%=maximum inhibition). IC50 values were determined after correcting for background [(sample read−mean of low control)/(mean of high control−mean of low control)] where by the low control is DMSO without stimulation and high control is DMSO with stimulation. The IC50 is defined as the concentration of test compound which produces 50% inhibition and was quantified using the 4 parameter logistic equation to fit the data.
Table 5 lists the IC50 values measured in the TNF induced HEK-Blue assay for Examples 1 to 40 of this invention.

Sequence of TNFα (P01375 77-233): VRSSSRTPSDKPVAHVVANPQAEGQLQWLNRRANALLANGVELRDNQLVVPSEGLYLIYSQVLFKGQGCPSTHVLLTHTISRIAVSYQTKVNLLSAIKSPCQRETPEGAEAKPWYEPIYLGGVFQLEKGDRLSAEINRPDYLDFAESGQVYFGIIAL

| pIC50 | SMILES |
| --- | --- |
| 5.00 to 6.00 | CC(C)(O)c1ccc(-c2ccc3nc4n(c3n2)C(c2ccccc2C(F)(F)F)CC4O)cc1 (single isomer, unassigned) [Example 1 (e3), 2-(4-(2-Hydroxypropan-2-yl)phenyl)-8-(2-(trifluoromethyl)phenyl)-7,8-dihydro-6H-pyrrolo[2′,1′:2,3]imidazo[4,5-b]pyridin-6-ol] |
| 5.00 to 6.00 | CC(C)(O)c1ccc(-c2ccc3nc4n(c3n2)C(c2ccccc2C(F)(F)F)CC4O)cc1 (single isomer, unassigned) [Example 1 (e4), 2-(4-(2-Hydroxypropan-2-yl)phenyl)-8-(2-(trifluoromethyl)phenyl)-7,8-dihydro-6H-pyrrolo[2′,1′:2,3]imidazo[4,5-b]pyridin-6-ol] |
| > 6.00 | CC(C)(O)c1ccc(-c2ccc3nc4n(c3n2)C(c2ccccc2OC(F)F)CC4O)cc1 (single isomer, unassigned) [Example 2 (e1), 8-(2-(difluoromethoxy)phenyl)-2-(4-(2-hydroxypropan-2-yl)phenyl)-7,8-dihydro-6H-pyrrolo[2′,1′:2,3]imidazo[4,5-b]pyridin-6-ol] |
| 5.00 to 6.00 | CC(C)(O)c1ccc(-c2ccc3nc4n(c3n2)C(c2ccccc2OC(F)F)CC4O)cc1 (single isomer, unassigned) [Example 2 (e2), 8-(2-(difluoromethoxy)phenyl)-2-(4-(2-hydroxypropan-2-yl)phenyl)-7,8-dihydro-6H-pyrrolo[2′,1′:2,3]imidazo[4,5-b]pyridin-6-ol] |
| 5.00 to 6.00 | CC(C)(O)c1ccc(-c2ccc3nc4n(c3n2)C(c2ccccc2OC(F)F)CC4O)cc1 (single isomer, unassigned) [Example 2 (e3), 8-(2-(difluoromethoxy)phenyl)-2-(4-(2-hydroxypropan-2-yl)phenyl)-7,8-dihydro-6H-pyrrolo[2′,1′:2,3]imidazo[4,5-b]pyridin-6-ol] |
| 5.00 to 6.00 | CC(C)(O)c1ccc(-c2ccc3nc4n(c3n2)C(c2ccccc2OC(F)F)CC4O)cc1 (single isomer, unassigned) [Example 2 (e4), 8-(2-(difluoromethoxy)phenyl)-2-(4-(2-hydroxypropan-2-yl)phenyl)-7,8-dihydro-6H-pyrrolo[2′,1′:2,3]imidazo[4,5-b]pyridin-6-ol] |
| > 6.00 | CC(C)(O)c1ccc(-c2ccc3nc4n(c3n2)C(c2c(F)cccc2C(F)(F)F)CC4O)cc1 (single isomer, unassigned) [Example 3 (e1), 8-(2-fluoro-6-(trifluoromethyl)phenyl)-2-(4-(2-hydroxypropan-2-yl)phenyl)-7,8-dihydro-6H-pyrrolo[2′,1′:2,3]imidazo[4,5-b]pyridin-6-ol] |
| > 6.00 | CC(C)(O)c1ccc(-c2ccc3nc4n(c3n2)C(c2c(F)cccc2C(F)(F)F)CC4O)cc1 (single isomer, unassigned) [Example 3 (e2), 8-(2-fluoro-6-(trifluoromethyl)phenyl)-2-(4-(2-hydroxypropan-2-yl)phenyl)-7,8-dihydro-6H-pyrrolo[2′,1′:2,3]imidazo[4,5-b]pyridin-6-ol] |
| > 6.00 | CC(C)(O)c1ccc(-c2ccc3nc4n(c3n2)C(c2c(F)cccc2C(F)(F)F)CC4O)cc1 (single isomer, unassigned) [Example 3 (e3), 8-(2-fluoro-6-(trifluoromethyl)phenyl)-2-(4-(2-hydroxypropan-2-yl)phenyl)-7,8-dihydro-6H-pyrrolo[2′,1′:2,3]imidazo[4,5-b]pyridin-6-ol] |
| 5.00 to 6.00 | CC(C)(O)c1ccc(-c2ccc3nc4n(c3n2)C(c2ccccc2C2CC2)CC4O)cc1 (single isomer, unassigned) [Example 9 (e3), 8-(2-cyclopropylphenyl)-2-(4-(2-hydroxypropan-2-yl)phenyl)-7,8-dihydro-6H-pyrrolo[2′,1′:2,3]imidazo[4,5-b]pyridin-6-ol] |
| 5.00 to 6.00 | CC(C)(O)c1ccc(-c2ccc3nc4n(c3n2)C(c2ccccc2C2CC2)CC4O)cc1 (single isomer, unassigned) [Example 9 (e4), 8-(2-cyclopropylphenyl)-2-(4-(2-hydroxypropan-2-yl)phenyl)-7,8-dihydro-6H-pyrrolo[2′,1′:2,3]imidazo[4,5-b]pyridin-6-ol] |
| 5.00 to 6.00 | COc1ccccc1C1CC(O)c2nc3ccc(-c4ccc(C(C)(C)O)cc4)nc3n21 (single isomer, unassigned) [Example 12 (e2), 2-(4-(2-hydroxypropan-2-yl)phenyl)-8-(2-methoxyphenyl)-7,8-dihydro-6H-pyrrolo[2′,1′:2,3]imidazo[4,5-b]pyridin-6-ol] |
| 4.60 to 5.00 | COc1ccccc1C1CC(O)c2nc3ccc(-c4ccc(C(C)(C)O)cc4)nc3n21 (single isomer, unassigned) [Example 12 (e3), 2-(4-(2-hydroxypropan-2-yl)phenyl)-8-(2-methoxyphenyl)-7,8-dihydro-6H-pyrrolo[2′,1′:2,3]imidazo[4,5-b]pyridin-6-ol] |
| 5.00 to 6.00 | COc1ccccc1C1CC(O)c2nc3ccc(-c4ccc(C(C)(C)O)cc4)nc3n21 (single isomer, unassigned) [Example 12 (e4), 2-(4-(2-hydroxypropan-2-yl)phenyl)-8-(2-methoxyphenyl)-7,8-dihydro-6H-pyrrolo[2′,1′:2,3]imidazo[4,5-b]pyridin-6-ol] |
| > 6.00 | CC(C)(O)c1ccc(-c2ccc3nc4n(c3n2)C(c2cc(F)ccc2C(F)(F)F)CC4O)cc1 (single isomer, unassigned) [Example 13 (e1), 8-(5-fluoro-2-(trifluoromethyl)phenyl)-2-(4-(2-hydroxypropan-2-yl)phenyl)-7,8-dihydro-6H-pyrrolo[2′,1′:2,3]imidazo[4,5-b]pyridin-6-ol] |
| 5.00 to 6.00 | CC(C)(O)c1ccc(-c2ccc3nc4n(c3n2)C(c2cc(F)ccc2C(F)(F)F)CC4O)cc1 (single isomer, unassigned) [Example 13 (e2), 8-(5-fluoro-2-(trifluoromethyl)phenyl)-2-(4-(2-hydroxypropan-2-yl)phenyl)-7,8-dihydro-6H-pyrrolo[2′,1′:2,3]imidazo[4,5-b]pyridin-6-ol] |
| 5.00 to 6.00 | CC(C)(O)c1ccc(-c2ccc3nc4n(c3n2)C(c2cc(F)ccc2C(F)(F)F)CC4O)cc1 (single isomer, unassigned) [Example 13 (e3), 8-(5-fluoro-2-(trifluoromethyl)phenyl)-2-(4-(2-hydroxypropan-2-yl)phenyl)-7,8-dihydro-6H-pyrrolo[2′,1′:2,3]imidazo[4,5-b]pyridin-6-ol] |
| 5.00 to 6.00 | CC(C)(O)c1ccc(-c2ccc3nc4n(c3n2)C(c2cc(F)ccc2C(F)(F)F)CC4O)cc1 (single isomer, unassigned) [Example 13 (e4), 8-(5-fluoro-2-(trifluoromethyl)phenyl)-2-(4-(2-hydroxypropan-2-yl)phenyl)-7,8-dihydro-6H-pyrrolo[2′,1′:2,3]imidazo[4,5-b]pyridin-6-ol] |
| 5.00 to 6.00 | CC(C)(O)c1ccc(-c2ccc3nc4n(c3n2)C(c2ccccc2C(F)(F)F)CC4F)cc1 (single isomer, unassigned) [Example 14 (e1), 2-(4-(6-Fluoro-8-(2-(trifluoromethyl)phenyl)-7,8-dihydro-6H-pyrrolo[2′,1′:2,3]imidazo[4,5-b]pyridin-2-yl)phenyl)propan-2-ol] |
| > 6.00 | CC(C)(O)c1ccc(-c2ccc3nc4n(c3n2)C(c2ccccc2C(F)(F)F)CC4F)cc1 (single isomer, unassigned) [Example 14 (e2), 2-(4-(6-Fluoro-8-(2-(trifluoromethyl)phenyl)-7,8-dihydro-6H-pyrrolo[2′,1′:2,3]imidazo[4,5-b]pyridin-2-yl)phenyl)propan-2-ol] |
| 5.00 to 6.00 | CC(C)(O)c1ccc(-c2ccc3nc4n(c3n2)C(c2ccccc2C(F)(F)F)CC4F)cc1 (single isomer, unassigned) [Example 14 (e3), 2-(4-(6-Fluoro-8-(2-(trifluoromethyl)phenyl)-7,8-dihydro-6H-pyrrolo[2′,1′:2,3]imidazo[4,5-b]pyridin-2-yl)phenyl)propan-2-ol] |
| > 6.00 | CC(C)(O)c1ccc(-c2ccc3nc4n(c3n2)C(c2ccccc2C(F)(F)F)CC4F)cc1 (single isomer, unassigned) [Example 14 (e4), 2-(4-(6-Fluoro-8-(2-(trifluoromethyl)phenyl)-7,8-dihydro-6H-pyrrolo[2′,1′:2,3]imidazo[4,5-b]pyridin-2-yl)phenyl)propan-2-ol] |
| 4.60 to 5.00 | CC(C)(O)c1ccc(-c2ccc3nc4n(c3n2)C(c2ccccc2OC(F)F)CC4F)cc1 (single isomer, unassigned) [Example 15 (e2), 2-(4-(8-(2-(difluoromethoxy)phenyl)-6-fluoro-7,8-dihydro-6H-pyrrolo[2′,1′:2,3]imidazo[4,5-b]pyridin-2-yl)phenyl)propan-2-ol] |
| > 6.00 | COc1ccc(-c2ccc3nc4n(c3n2)C(c2ccccc2OC(F)F)CC4F)cn1 (single isomer, unassigned) [Example 18 (e1), 8-(2-(difluoromethoxy)phenyl)-6-fluoro-2-(6-methoxypyridin-3-yl)-7,8-dihydro-6H-pyrrolo[2′,1′:2,3]imidazo[4,5-b]pyridine] |
